The term melting point denotes the temperature of the solid-liquid transition. What is called IC50 is the point on the concentration scale where inhibition reaches its midpoint.

The values below come from patent publication US10017535B2, “Amphiphilic compounds with neuroprotective properties” (USTAV ORGANICKE CHEMIE A BIOCHEMIE AV CR, v.v.i., priority 2014, dated 2018).

Counter-ions that a name gives are not always drawn. Like-named read-outs stand apart in the source and are kept apart here.

The target of data set [1] is T1, NR1-1a/NR2B NMDA receptor (Rattus norvegicus, UniProt P35439+Q00960).
T1 construct: expressed in transfected cells; host or cells: HEK293 cells (ATCC CRL1573)
T1 sequence (Q00960 27-1482, other chains not shown): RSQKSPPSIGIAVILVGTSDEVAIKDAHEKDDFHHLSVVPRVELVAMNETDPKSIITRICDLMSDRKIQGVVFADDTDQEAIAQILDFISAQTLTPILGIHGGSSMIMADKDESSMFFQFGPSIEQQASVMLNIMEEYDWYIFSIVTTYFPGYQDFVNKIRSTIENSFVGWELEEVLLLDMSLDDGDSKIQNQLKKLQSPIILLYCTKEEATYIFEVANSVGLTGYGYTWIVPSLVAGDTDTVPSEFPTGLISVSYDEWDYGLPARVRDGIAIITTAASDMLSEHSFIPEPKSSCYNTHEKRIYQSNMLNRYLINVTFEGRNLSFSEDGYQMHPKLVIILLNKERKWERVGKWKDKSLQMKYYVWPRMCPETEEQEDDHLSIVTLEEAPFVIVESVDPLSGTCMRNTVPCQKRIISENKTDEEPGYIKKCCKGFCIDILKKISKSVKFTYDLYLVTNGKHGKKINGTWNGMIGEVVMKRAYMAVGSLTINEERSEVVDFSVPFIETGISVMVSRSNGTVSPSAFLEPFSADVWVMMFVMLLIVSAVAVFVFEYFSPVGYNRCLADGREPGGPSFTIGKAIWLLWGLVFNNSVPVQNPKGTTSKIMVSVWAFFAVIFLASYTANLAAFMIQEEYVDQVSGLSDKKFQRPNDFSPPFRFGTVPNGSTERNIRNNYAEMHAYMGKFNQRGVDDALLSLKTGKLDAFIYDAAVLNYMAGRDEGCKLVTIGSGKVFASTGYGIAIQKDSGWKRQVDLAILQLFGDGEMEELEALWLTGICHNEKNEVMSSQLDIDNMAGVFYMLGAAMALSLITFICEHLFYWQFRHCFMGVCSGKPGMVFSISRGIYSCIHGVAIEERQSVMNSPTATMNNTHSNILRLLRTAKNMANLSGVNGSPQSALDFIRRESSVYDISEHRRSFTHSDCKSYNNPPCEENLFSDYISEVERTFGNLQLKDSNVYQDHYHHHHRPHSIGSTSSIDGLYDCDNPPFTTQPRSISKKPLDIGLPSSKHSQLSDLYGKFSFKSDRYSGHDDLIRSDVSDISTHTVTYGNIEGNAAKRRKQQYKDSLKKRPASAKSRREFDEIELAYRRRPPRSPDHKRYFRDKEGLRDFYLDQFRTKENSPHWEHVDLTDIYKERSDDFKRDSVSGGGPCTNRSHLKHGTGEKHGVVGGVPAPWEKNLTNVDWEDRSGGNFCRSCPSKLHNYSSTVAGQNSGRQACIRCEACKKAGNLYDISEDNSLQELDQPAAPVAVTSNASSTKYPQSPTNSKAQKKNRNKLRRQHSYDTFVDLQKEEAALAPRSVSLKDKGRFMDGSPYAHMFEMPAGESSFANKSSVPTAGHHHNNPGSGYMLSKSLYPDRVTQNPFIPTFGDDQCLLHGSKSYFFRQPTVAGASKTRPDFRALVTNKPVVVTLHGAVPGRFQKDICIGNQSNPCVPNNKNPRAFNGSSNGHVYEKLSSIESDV
Put plainly: Patch-clamp inhibition of glutamate-evoked currents at recombinant NMDA receptors in transfected HEK293 cells. It is filed as cell-based. The note with it: for Mean % change ± SD: 1 mmol·l^−1 glutamate, −60 mV; for inhibition at 10 µM: HEK293, read-out: Mean % change ± SD. Here is the method:
Transfected cells were identified by means of fluorescent green protein (GFP) fluorescence. Its genus was transfected together with the both receptor subunit genes.
Steroid-containing solutions were prepared from fresh solution (20 mmol·l^−1, of steroid dissolved in dimethyl sulfoxide, DMSO), which was added to the extracellular solution containing 1 mmol·l^−1 glutamic acid and 10 μmol·l^−1 of glycine. Identical concentrations of DMSO were added to all other extracellular solutions.
Current responses produced by extracellular application of glutamic acid solution (1 mmol·l^−1) were measured from the whole cell by patch-clamp technique, which is used for the study of transport of charged particles through model and also natural biological membranes. The currents were measured at membrane potential maintained at −60 mV and +60 mV.
Same amounts (0.3 μg) of cDNA coding NR1, NR2 and GFP (green fluorescent protein) (pQBI 25, Takara, Japan) were mixed with 0.9 μl of Matra-A Reagent (IBA, Göttingen, Germany) and added to confluent HEK293 cells cultivated in v 24-pit cultivating plate. After trypsination, the cells were re-suspended in Opti-MEM® I containing 1% fetal bovine serum. Subsequently, 20 mmol·l^−1 MgCl2, 1 mmol l^−1 D,L-2-amino-5-phosphonopentanoic acid, 3 mmol·l^−1 kynurenic acid was added to the mixture and cells were inoculated on the polylysine-coated glass plates having 25 mm in diameter. The following genes coding NMDA receptor subunits were used for transfection: NR1-1 a (GenBank accession No. U08261) and NR2B (GenBank accession No. M91562).
HEK293 Cultured cells were used for electrophysiological investigations with a latency of 16-40 h after transfection. Whole-cell currents were measured by patch-clamp amplifier (Axopatch 1D; Axon Instruments, Inc. Foster City, USA) after capacitance and serial resistance (<10 MΩ) compensation to 80-90%. Agonist-induced responses were filtered to 1 kHz (8-pole Bessel filter; Frequency Devices, Haverhill, USA), digitized with sampling frequency of 5 kHz and analyzed by pClamp version 9 software (Axon Instruments, USA). […] Extracellular solution (ECS) contained 160 mmol·l^−1 sodium chloride, 2.5 mmol·l^−1 potassium chloride, 10 mmol·l^−1 HEPES, 10 mmol·l^−1 glucose, 0.2 mmol·l^−1 EDTA a 0.7 mmol·l^−1 calcium chloride (pH adjusted to 7.3 by sodium hydroxide solution). Glycine was added to both testing and control solution. Moreover, bicuculline (10 μmol·l^−1) and tetrodotoxin (0.5 μmol·l^−1) was added to hippocampal cultures. Steroid-containing solutions were prepared from fresh solution (20 mmol·l^−1) of steroid dissolved in dimethyl sulfoxide (DMSO). Same concentrations of DMSO were used in all extracellular solutions. Control and experimental solutions were applied via microprocessor-controlled perfusion system with approx. rate of solution exchange in areas adjacent to cells reaching ˜10 ms.
Current responses produced by 100 μmol·l^−1 of NMDA (in the case of hipocampal neurones), or by 1 mmol·l^−1 of glutamate (on recombinant NMDA receptors) were measured at membrane potential maintained at −60 mV. […] Relative effect of steroid-induced inhibition was used for calculating IC50.

Data set [2] relates to laboratory mice, strain CD-1. Put plainly: Open field test (locomotor activity, sedative effect). The conditions noted are these: for overall pathway in open field: 0.3 mg/kg, 50 minutes. It is filed as in vivo. The procedure: In the Experimental Part 1 were used adults (30-35 g) male laboratory mice, strain CD-1 from Velaz facility, Czech Republic. Mice were housed in plastic boxes with a 12-hour light cycle (lights on at 7:00 pm). Mice had free access to food and water.
Amphiphilic steroid compounds were dissolved in a solution of 3 g (2-hydroxypropyl)-β-cyclodextrin (CDX, Sigma-Aldrich) and 157 mg of citric acid ([…], Sigma-Aldrich) in 30 ml of distilled water, the pH was adjusted to 7.4 using sodium hydroxide (NaOH, Sigma-Aldrich). Thus there were prepared solutions of the four steroids for application rates of 0.1, 1, 10 and 100 mg/kg.
The efficacy of the studied compounds was compared to known NMDA antagonist is memantine (Sigma-Aldrich) at a dose of 5 mg/kg in rats, ketamine (Vétoquinol) at 10 mg/kg and dizocilpine (MK-801) (Sigma-Aldrich) at a dose of 0.3 mg/kg in mice. These three compounds were dissolved in saline (B Braun).
The substances at dose 0.1-100 mg/kg were administered before the test to mice intraperitoneally. As controls were used intact mice and mice that received CDX solution. Also, MK-801 (0.3 mg/kg) was used for comparison of effects of noncompetitive antagonist of NMDA receptors. From the experiment was evaluated overall track anywhere in the arena as an indicator of locomotor activity. In addition, it was judged a ten-minute segments track during each experiment. Based on these values, it was possible to determine the latency time of onset of action and changes in locomotor activity over time.
In this arrangement, the sedative effect of the studied compounds at the highest dose was evaluated. […] Over time was monitored locomotor activity and possible changes characterized by tremor, ataxia, restlessness, or sedation or general anesthesia (absence of response to stimuli, decreased muscle tone).

Where [3] appears, read: calculated from relative steroid-induced inhibition, Hill's coefficient 1.2, read-out: IC50.
Setting [4] is: steroid concentration 3 μmol·l^−1.
[5] abbreviates: steroid concentration 10 μmol·l^−1.

`C=C1C[C@H]2[C@@H]3CC[C@@H]4C[C@H](OC(=O)CCC(=O)O)CC[C@]4(C)[C@H]3CC[C@]2(C)C1` showed a melting point of 165 to 165.7 °C.

The compound `C[C@@]12CCC[C@H]1[C@@H]1CC[C@@H]3C[C@H](OC(=O)[C@@H](N)CCCNC(=N)N)CC[C@]3(C)[C@H]1CC2.Cl.Cl` came in with a melting point of 238 to 240 °C.

On to `C=C1CC[C@H]2[C@@H]3CC[C@@H]4C[C@H](OC(=O)CCCCC(=O)O)CC[C@]4(C)[C@H]3CC[C@]12C`, for which the melting point was in the range of 100 to 102 °C.

`C[C@H]1CC[C@H]2[C@@H]3CC[C@@H]4C[C@H](OC(=O)CC(=O)O)CC[C@]4(C)[C@H]3CC[C@]12C` displayed a melting point of 158 to 161.2 °C.

With `C[C@H]1CC[C@H]2[C@@H]3CC[C@@H]4C[C@H](OC(=O)CCC(=O)O)CC[C@]4(C)[C@H]3CC[C@]12C`, the melting point was in the range of 141 to 142 °C.

The compound `C=C(C)[C@H]1CC[C@H]2[C@@H]3CC[C@@H]4C[C@H](OC(=O)CCC(=O)O)CC[C@]4(C)[C@H]3CC[C@]12C` gave a melting point of 148 to 149.5 °C.

As for `C[C@@]12CCC[C@H]1[C@@H]1CC[C@@H]3C[C@H](OC(=O)CCC[N+](C)(C)C)CC[C@]3(C)[C@H]1CC2` (as salt: chloride) [Compound 62, 4-(((3R,5R,8S,9S,10S,13S,14S)-10,13-Dimethylhexadecahydro-1H-cyclopenta[a]-phenanthren-3-yl)oxy)-N,N,N-trimethyl-4-oxobutan-1-ammonium chloride], the melting point fell in the range of 225 to 227 °C.

On to `C=C1CC[C@H]2[C@@H]3CC[C@@H]4C[C@H](OC(=O)C[N+](C)(C)C)CC[C@]4(C)[C@H]3CC[C@]12C` (as salt: chloride) [Compound 76, 2-(((3R,5R,8R,9S,10S,13S,14S)-10,13-Dimethyl-17-methylenehexadecahydro-1H-cyclopenta[a]phenanthren-3-yl)oxy)-N,N,N-trimethyl-2-oxoethan-1-ammonium chloride], for which the melting point lay in the range of 175 to 177 °C.

As for `C[C@@]12CCC[C@H]1[C@H]1CC[C@H]3C[C@H](OS(=O)(=O)O)CC[C@]3(C)[C@@H]1CC2.c1ccncc1` [Compound 127, Pyridinium (3R,5S,8R,9R,10S,13S,14S)-10,13-dimethylhexadecahydro-1H-cycopenta[a]phenanthren-3-yl 3-sulfate], the IC50 in data set [1] (setting [3]) was 1700 nM. In addition, the “Mean % change ± SD” value in data set [1] (setting [4]) was found to be 34.0 ± 5.0%.

In the case of `C[C@@]12CCC[C@H]1[C@@H]1CC[C@@H]3C[C@H](N4CC(C(=O)O)CC4=O)CC[C@]3(C)[C@H]1CC2` (stereo partly drawn) [Compound 131, 1-((3R,5R,8S,9S,10S,13S,14S)-10,13-Dimethylhexadecahydro-1H-cyclopenta[a]phenanthren-3-yl)-5-oxopyrrolidine-3-carboxylic acid], the inhibition at 10 µM in data set [1] stood at 34.7 ± 7.2%. The IC50 in data set [1] (setting [3]) is 17700 nM.

As to `C/C=C1/CC[C@H]2[C@@H]3CC[C@@H]4C[C@H](NC(=O)CC(=O)O)CC[C@]4(C)[C@H]3CC[C@]12C` [Compound 155, 3-(((3R,5R,8R,9S,10S,13S,14S,Z)-17-Ethylidene-10,13-dimethylhexadecahydro-1H-cyclopenta[a]phenanthren-3-yl)amino)-3-oxopropanoic acid], in data set [1], the IC50 is 8700 nM and the inhibition at 10 µM was 54.4 ± 5%.

Turning to `C[C@]12N[C@H](Cc3ccccc31)c1ccccc12` [dizocilpine, reference compound], the results for the “overall pathway in open field” value in data set [2] (vs CDX control group) and in data set [2] (vs intact animals (p=0.0653)) were “significant increases” and “tendency to increasement”, respectively. In addition, in data set [2] (dizocilpine 0.3 mg/kg, ten-minute sections), the “time course of locomotor activity” value is reported as “gradual increase”. The total locomotor activity entry in data set [2] (dizocilpine 0.3 mg/kg, vs two control groups) is on record as “significantly higher”.

With “Pyridinium (2S,4aR,4bR,8aS,10aS)-4a-methyltetradecahydrophenanthren-2-yl 2-sulfate [Compound 128]”, the IC50 in data set [1] (setting [3]) is 36300 nM. Besides, the “Mean % change ± SD” value in data set [1] (steroid concentration 50 μmol·l^−1) is listed as 58.0 ± 2.0%.

Regarding “Pyridinium (3R,5R,8R,9R,10S,13S,14S)-13-methylhexadecahydro-1H-cyclopenta[a]phenanthren-3-yl 3-sulfate [Compound 126]”, the IC50 in data set [1] (setting [3]) is 5400 nM. In addition, the “Mean % change ± SD” value in data set [1] (setting [5]) turned out to be 68.3 ± 7.4%.

Consider “Pyridinium (3R,5R,8R,9S,10S,13R,14S,17R)-17-((R)-sec-butyl)-10,13-dimethylhexadecahydro-1H-cyclopenta[a]phenanthren-3-yl 3-sulfate [Compound 123]”, for which the IC50 in data set [1] (setting [3]) was 11700 nM. In addition, the “Mean % change ± SD” value in data set [1] (setting [5]) is listed as 46.2 ± 2.3%.

For “Pyridinium (3R,5R,8R,9S,10S,13R,14S,17R)-17-isopropyl-10,13-dimethylhexadecahydro-1H-cyclopenta[a]phenanthren-3-yl 3-sulfate [Compound 122]”, the IC50 in data set [1] (setting [3]) is 2000 nM. The “Mean % change ± SD” value in data set [1] (setting [4]) amounted to 59.6 ± 18.8%.

With “Pyridinium (3R,5R,8R,9S,10S,13S,14S)-10,13-dimethyl-17-methylenehexadecahydro-1H-cyclopenta[a]phenanthren-3-yl 3-sulfate [Compound 116]”, in data set [1] (setting [3]), the IC50 was 1400 nM. Besides, in data set [1] (setting [4]), the “Mean % change ± SD” value stood at 68.3 ± 4.3%.

With “Pyridinium (3R,5R,8R,9S,10S,13S,14S,17R)-10,13-dimethyl-17-(prop-1-en-2-yl)hexadecahydro-1H-cyclopenta[a]phenanthren-3-yl 3-sulfate [Compound 121]”, the IC50 in data set [1] (setting [3]) was 400 nM. Further, the “Mean % change ± SD” value in data set [1] (steroid concentration 1 μmol·l^−1) was 71.7 ± 8.0%.

Take “Pyridinium (3R,5R,8S,9S,10S,13R,14R,17S)-10,17-dimethylhexadecahydro-1H-cyclopenta[a]phenanthren-3-yl 3-sulfate [Compound 119]”: the IC50 in data set [1] (setting [3]) is 700 nM. Moreover, the “Mean % change ± SD” value in data set [1] (setting [4]) is listed as 81.1 ± 2.1%.

For the compound “Pyridinium (3R,5R,8S,9S,10S,13R,14S,17S)-10,13,17-trimethylhexadecahydro-1H-cyclopenta[a]phenanthren-3-yl 3-sulfate [Compound 117]”, the IC50 in data set [1] (setting [3]) is 1100 nM. Further, in data set [1] (setting [4]), the “Mean % change ± SD” value stood at 73.1 ± 6.7%.

Take “Pyridinium (3R,5R,8S,9S,10S,13R,14S,17S)-17-ethyl-10,13-dimethylhexadecahydro-1H-cyclopenta[a]phenanthren-3-yl 3-sulfate [Compound 120]”: in data set [1] (setting [3]), the IC50 is 500 nM.

Turning to “Pyridinium (3R,5R,8S,9S,10S,13S,14R,17R)-10,17-dimethylhexadecahydro-1H-cyclopenta[a]phenanthren-3-yl 3-sulfate [Compound 118]”, in data set [1] (setting [3]), the IC50 is 1500 nM. Besides, the “Mean % change ± SD” value in data set [1] (setting [4]) turned out to be 68.0 ± 7.8%.
